According to PMC12627862, “Therapeutic targeting of endothelial calcium signaling accelerates the resolution of lung injury” (Signal Transduction and Targeted Therapy, 2025):
Starred links: 1 amine or outer side, 2 acyl side, 3 side chain; linkers in the order of their positions; H or OH if unused. Non-standard residues stand in square brackets, D forms with d. Residues, ends and D or L forms follow the SMILES beside them. ξ: configuration not given here. Oic = O=C(O)[C@@H]1C[C@@H]2CCCC[C@@H]2N1; GABOB(3R) = O=C(C[C@@H](O)CN[*:1])[*:2]; tBuAla = CC(C)(C)C[C@H](N)C(=O)O; ξVal(3-OH) = CC(C)(O)C(N)C(=O)O; 4Amb = NCc1ccc(C(=O)O)cc1

Key:
[1] = system: splenocytes from CD1 mice; experiment: Cytokine release by immune cells in vitro; assay type: cell-based, mouse; conditions: 2 µg/mL LPS for 2 hours, VT-109 200 nM and 1 µM
Experimental: VT-109’s effect on cytokine release by immune cells in vitro. Freshly isolated splenocytes from CD1 mice were treated with 2 µg/mL LPS for 2 hours. Two different concentrations of VT-109 (200 nM and 1 µM) were tested, and the cells were treated concurrently with LPS. Untreated splenocytes served as the control. After the 2-hour incubation, MCP-1, TNF-α, KC, and IL-6 levels were measured in the growth media using mouse multiplexed ELISA array. Data are expressed as pg/mL.

[2] = system: SARS-CoV-2 (WA1/2020); assay type: in vivo, mouse
[3] = Non-GLP dose-escalation (MTD) study in rats; assay type: in vivo, rat; design: key to Clinical Signs / Body Weights / Clinical Chemistry / Hematology / Coagulation: NE = no effect; DA = decreased activity; LB = labored breathing; P = piloerection; HP = hunched posture; conditions: rat, in vivo; male Crl:CD (SD) rats, single IV bolus; read-out: no observed adverse effect level (NOAEL)
[4] = system: Crl:CD (SD) rats; experiment: Non-GLP dose-escalation (MTD) study in rats; assay type: in vivo, rat; design: key to Clinical Signs / Body Weights / Clinical Chemistry / Hematology / Coagulation: NE = no effect; DA = decreased activity; LB = labored breathing; P = piloerection; HP = hunched posture; conditions: for ALT / APTT / AST / Albumin / Alkaline Phosphatase / Blood Urea Nitrogen / Calcium / Chloride / Cholesterol / Creatinine / Fibrinogen / Globulin / Glucose / Phosphorus / Potassium / Prothrombin Time / Sodium / Total Bilirubin / Total Protein: male rats, day 2, mean, N=3; for Body Weights / Clinical Chemistry / Clinical Signs / Coagulation / Hematology: rats, n=3
[5] = in vivo; conditions: male, Crl:CD (SD), rat, iv, 5 mg/kg
Experimental: (§1) Blood samples were collected at predefined time points (2, 10, 30, 60, 90 minutes, and 2, 4, 6, 8, and 24 hours post-dosing) from subgroups of rats, ensuring each animal contributed a limited number of samples to minimize stress. Plasma was separated by centrifugation and stored at -80 °C until analysis. Lungs were collected at selected time points (0.5, 2, 8, and 24 hours) for drug quantification. […] Pharmacokinetic parameters, including Cmax, Tmax, AUC, half-life, clearance, and volume of distribution, were calculated using Phoenix WinNonlin software.

[6] = in vitro; conditions: human, plasma
Experimental: (§2) Stability assay of peptides in blood plasma of rodents, dogs, and humans. For the plasma stability assay, 5 μM of each peptide was incubated with species-specific plasma for 120 minutes and samples were taken at the required time points. Positive control used were molecules with known stability: enalapril, propantheline, and warfarin. The amount of test compound remaining at each time point was analyzed by LC-MS/MS. Appropriate control compounds for each species were also incubated.

[7] = in vitro; conditions: rat, plasma
Experimental: as §2

[8] = in vitro; conditions: dog, plasma
Experimental: as §2

[9] = Pharmacokinetic studies in rats
Experimental: as §1

[10] = male, Crl:CD (SD), rat, in vivo, iv, 5 mg/kg
[11] = rat lungs, single IV 5 mg/kg, Phoenix WinNonlin
[12] = rat plasma, single IV 5 mg/kg, Phoenix WinNonlin

With `CC(C)(C)C[C@@H]1NC(=O)C[C@@H](O)CNC(=O)[C@@H]2C[C@@H]3CCCC[C@@H]3N2C(=O)[C@H](CC(C)(C)C)NC(=O)c2ccc(cc2)CNC(=O)C(C(C)(C)O)NC(=O)[C@@H](Cc2ccccc2)NC1=O` (stereo partly drawn) [compound 109, (1^2S,1^3aS,1^7aS,3S,10S,13R,16S,20R)-13-benzyl-20-hydroxy-10-(2-hydroxypropan-2-yl)-3,16-dineopentyl-1^2,1^3,1^3a,1^4,1^5,1^6,1^7,1^7a-octahydro-1^1H-4,8,11,14,17,22-hexaaza-1(1,2)-indola-6(1,4)-benzenacyclotricosaphane-2,5,9,12,15,18,23-heptaone.] (cyclo([4Amb][tBuAla][Oic][GABOB(3R)][tBuAla][dF][ξVal(3-OH)])) the “cytokine production by immune cells in vitro (MCP-1, TNFα, KC, IL-6)” value [1] was “nor did it directly alter cytokine production”, the “lung injury (ALI score)” value ([2]; 250 nmol/kg bw from 1 dpi) was “promoted the resolution of lung injury by day 7” and the “NFATC2 nuclear accumulation in endothelial and immune cells” value ([2]; 250 nmol/kg bw, 7 dpi) was “reduced NFATC2 nuclear accumulation”. For the same molecule, the VE-cadherin junctions ([2]; 250 nmol/kg bw, 7 dpi) was “reannealed junctions”, the “number of infiltrating monocytes and neutrophils in the BALF” value ([2]; 2 µmol/kg bw i.v.) was “significantly reduced” and the “blood-brain barrier (BBB) integrity, cerebral cortex” value ([2]; 2 µmol/kg bw i.v., 5 dpi) was “restored BBB integrity”. The NOAEL at 72 h [3] was 5 mg/kg, the “MTD, equivalent in humans” value ([4]; human equivalent) was ~ 2.43 mg/kg and the “LOAEL, HED” value ([4]; human equivalent dose) was ~ 1.62 mg/kg. For the same molecule, the “NOAEL, HED” value ([4]; human equivalent dose) was ~ 0.81 mg/kg, the “lowest observed adverse effect level (LOAEL)” value ([4]; male Crl:CD (SD) rats, single IV bolus) was 10 mg/kg and the ALT ([4]; 5 mg/kg) was 52.7 U/L. For the same molecule, the APTT ([4]; 5 mg/kg) was 17.933 d¹ Seconds, the AST ([4]; 5 mg/kg) was 71.3 U/L and the Albumin ([4]; 5 mg/kg) was 3.0400 g/dL. The “Alkaline Phosphatase” value ([4]; 5 mg/kg) was 381.7 U/L, the “Blood Urea Nitrogen” value ([4]; 5 mg/kg) was 13.0 mg/dL and the Calcium ([4]; 5 mg/kg) was 11.320 mg/dL. The Chloride ([4]; 5 mg/kg) was 98.3 mmol/L, the Cholesterol ([4]; 5 mg/kg) was 86.0 5.6 3 mg/dL and the Creatinine ([4]; 5 mg/kg) was 0.3139 mg/dL. For the same molecule, the Fibrinogen ([4]; 5 mg/kg) was 403.0 mg/dL, the Globulin ([4]; 5 mg/kg) was 2.239 g/dL and the Glucose ([4]; 5 mg/kg) was 161.3 mg/dL. The Phosphorus ([4]; 5 mg/kg) was 9.10 0.44 3 mg/dL, the Potassium ([4]; 5 mg/kg) was 5.93 d² mmol/L and the “Prothrombin Time” value ([4]; 5 mg/kg) was 11.77 s. The Sodium ([4]; 5 mg/kg) was 141.3 mmol/L, the “Total Bilirubin” value ([4]; 5 mg/kg) was 0.127 mg/dL and the “Total Protein” value ([4]; 5 mg/kg) was 5.279 g/dL. For the same molecule, the ALT ([4]; 10 mg/kg) was 52.0 U/L, the APTT ([4]; 10 mg/kg) was 17.800 d¹ Seconds and the AST ([4]; 10 mg/kg) was 68.3 U/L. The Albumin ([4]; 10 mg/kg) was 3.2720 0.1274 3 g/dL, the “Alkaline Phosphatase” value ([4]; 10 mg/kg) was 323.0 U/L and the “Blood Urea Nitrogen” value ([4]; 10 mg/kg) was 18.7 mg/dL. For the same molecule, the Calcium ([4]; 10 mg/kg) was 11.767 mg/dL, the Chloride ([4]; 10 mg/kg) was 99.0 mmol/L and the Cholesterol ([4]; 10 mg/kg) was 88.7 2.3 3 mg/dL. The Creatinine ([4]; 10 mg/kg) was 0.318 mg/dL, the Fibrinogen ([4]; 10 mg/kg) was 453.3 mg/dL and the Globulin ([4]; 10 mg/kg) was 2.523 0.078 3 g/dL. For the same molecule, the Glucose ([4]; 10 mg/kg) was 126.7 10.5 3 mg/dL, the Phosphorus ([4]; 10 mg/kg) was 9.67 0.45 3 mg/dL and the Potassium ([4]; 10 mg/kg) was 5.77 mmol/L. The “Prothrombin Time” value ([4]; 10 mg/kg) was 12.27 d¹ Seconds, the Sodium ([4]; 10 mg/kg) was 144.0 mmol/L and the “Total Bilirubin” value ([4]; 10 mg/kg) was 0.127 mg/dL. For the same molecule, the “Total Protein” value ([4]; 10 mg/kg) was 5.795 0.203 3 g/dL, the ALT ([4]; 15 mg/kg) was 52.7 U/L and the APTT ([4]; 15 mg/kg) was 16.867 s. For the same molecule, the AST ([4]; 15 mg/kg) was 69.7 U/L, the Albumin ([4]; 15 mg/kg) was 3.1030 d² 0.0465 3 g/dL and the “Alkaline Phosphatase” value ([4]; 15 mg/kg) was 286.0 U/L. The “Blood Urea Nitrogen” value ([4]; 15 mg/kg) was 15.7 d² mg/dL, the Calcium ([4]; 15 mg/kg) was 11.590 mg/dL and the Chloride ([4]; 15 mg/kg) was 97.0 d² mmol/L. The Cholesterol ([4]; 15 mg/kg) was 91.0 6.1 3 mg/dL, the Creatinine ([4]; 15 mg/kg) was 0.352 mg/dL and the Fibrinogen ([4]; 15 mg/kg) was 438.3 mg/dL. For the same molecule, the Globulin ([4]; 15 mg/kg) was 2.488 0.021 3 g/dL, the Glucose ([4]; 15 mg/kg) was 142.3 d² 1.2 3 mg/dL and the Phosphorus ([4]; 15 mg/kg) was 9.00 0.26 3 mg/dL. For the same molecule, the Potassium ([4]; 15 mg/kg) was 5.47 mmol/L, the “Prothrombin Time” value ([4]; 15 mg/kg) was 11.67 s and the Sodium ([4]; 15 mg/kg) was 142.0 mmol/L. The “Total Bilirubin” value ([4]; 15 mg/kg) was 0.140 mg/dL, the “Total Protein” value ([4]; 15 mg/kg) was 5.591 d² 0.067 3 g/dL and the “Body Weights” value ([4]; single IV bolus 5 mg/kg) was “NE”. The “Clinical Chemistry” value ([4]; single IV bolus 5 mg/kg) was “NE”, the “Clinical Signs” value ([4]; single IV bolus 5 mg/kg) was “DA” and the Coagulation ([4]; single IV bolus 5 mg/kg) was “NE”. For the same molecule, the Hematology ([4]; single IV bolus 5 mg/kg) was “NE”, the “Body Weights” value ([4]; single IV bolus 10 mg/kg) was “NE” and the “Clinical Chemistry” value ([4]; single IV bolus 10 mg/kg) was “↑BUN”. The “Clinical Signs” value ([4]; single IV bolus 10 mg/kg) was “DA, LB”, the Coagulation ([4]; single IV bolus 10 mg/kg) was “NE” and the Hematology ([4]; single IV bolus 10 mg/kg) was “↓%Reticulocytes”. For the same molecule, the “Body Weights” value ([4]; single IV bolus 15 mg/kg) was “NE”, the “Clinical Chemistry” value ([4]; single IV bolus 15 mg/kg) was “↑BUN ↑Creatinine” and the “Clinical Signs” value ([4]; single IV bolus 15 mg/kg) was “DA, LB, P, HP”. For the same molecule, the Coagulation ([4]; single IV bolus 15 mg/kg) was “NE”, the Hematology ([4]; single IV bolus 15 mg/kg) was “↓Platelet Count ↓%Reticulocytes ↑Mean Platelet Volume” and the lung gross histopathology ([4]; single IV bolus 15 mg/kg) was “intra-alveolar hemorrhage and pigment deposition”. It also gave a level at 0.167 h [5] of 23700 ng/mL, a level at 0.5 h [5] of 2550 ng/mL and a level at 1 h [5] of 580 ng/mL. It also gave a level at 1.5 h [5] of 399 ng/mL, a level at 2 h [5] of 252 ng/mL and a level at 4 h [5] of 127 ng/mL. The level at 6 h [5] was 66.3 ng/mL, the level at 8 h [5] was 42.7 ng/mL and the level at 24 h [5] was 5.9 ng/mL. For the same molecule, the half-life at 5 μM [6] was > 8 h, the remaining at 2 h, 5 μM [6] was 101% and the half-life at 5 μM [7] was 4.88 h. The remaining at 2 h, 5 μM [7] was 76.5%, the half-life at 5 μM [8] was > 8 h and the remaining at 2 h, 5 μM [8] was 91.9%. For the same molecule, the AUC(0-t) [9, 10] was 12400 ng·h/mL, the C0 [9, 10] was 46300 ng/mL and the Tmax [9, 10] was 1.98 min. The Vd [9, 10] was 3.1 L/kg, the clearance [9, 10] was 6.72 mL/min/kg and the half-life [9, 10] was 5.33 h. For the same molecule, the “AUC (0-last)” value [9, 11] was 27219 ng·h/g, the Cmax [9, 11] was 3606 ng/g and the Lambda_z [9, 11] was 0.1535 h⁻¹. For the same molecule, the half-life [9, 11] was 4.52 h, the “persistence of substantial amounts in the lung post dose” value ([9]; rat lungs, single intravenous injection) was “at least 24 hours” and the Cmax [9, 12] was 40548 ng/mL. For the same molecule, the Lambda_z [9, 12] was 0.1299 h⁻¹ and the “time of peak plasma concentrations (Cmax) after dosing” value ([9]; rat plasma, single intravenous injection) was ≤ 2 min.
